Measured values reported in patent US20100260830A1, “Liposomal Formulations of Tocopheryl Amides” (priority 2009, published 2010).
Read-outs that look alike come from different tables or passages of the source.

Legend:
[1] = tested on: Jurkat T cells; experiment: Mitochondrial membrane potential ΔΨ, flow cytometry with JC-1 probe; type: cell-based
Description: FIG. 3 illustrates the effect of selected chromans on mitochondrial membrane potential ΔΨ in vitro. […] Deviations in ΔΨ were estimated by flow cytometry followed by cell staining with the polychromatic JC-1 probe.

[2] = tested on: mouse melanoma B16F10 cells; experiment: Cytotoxic effect on melanoma cells in vitro
Method: (§1) IC50 values were calculated from MTT activity (Bank, U et al, 1991, Measurement of cellular activity by means of the MTT-test. Allerg Immunol 37:119-123).

[3] = tested on: human breast cancer cell line MCF-7; experiment: MTT cytotoxicity IC50; type: cell-based; conditions: calculated from MTT activity
Method: as §1

[4] = tested on: Meso-2 cells; experiment: IC50 against Meso-2 cells (FIG. 14A); type: cell-based; conditions: values only in FIG. 14A
Description: In FIG. 14A, esters and amides of the chromanol and N-chroman genera are compared. […] There is a correlation between increased potency and CLogP, where amide lipophilicity is consistently greater than that of the corresponding esters. Other factors of molecular structure also play a role.

[5] = Injection of αTAM dissolved in DMSO or ethanol (Prior Art I); type: in vivo, mice
Description: In earlier work to develop a formulation of αTAM for preclinical study, the compound was first dissolved in DMSO or ethanol as has been characteristic of studies of this kind (Weber et al, 2002, Vitamin E succinate is a potent novel antineoplastic agent with high selectivity and cooperativity with tumor necrosis factor-related apoptosis-inducing ligand (Apo2 ligand) in vivo, Clin Cancer Res 8:863-69; Yu et al, 1999, Induction of apoptosis in human breast cancer cells by tocopherols and tocotrienols, Nutr Cancer 33:26-32).

[6] = tested on: non-malignant cells (e.g. lymphocytes and bone marrow progenitors); experiment: In vitro models of non-malignant cells; type: cell-based
[7] = General toxicity in mice by the Berlin Test; type: in vivo; conditions: 5 mg/kg in DMSO
Description: The general toxicity of liposomal preparations of αTAM was studied further in mice by the Berlin Test. Untreated mice and mice treated with empty liposomes were used as controls. […] Symptoms including spasms and heavy breathing pointed to neurotoxicity, embolie or anaphylactic reaction. Therefore, we have discontinued experiments that involved the use of non-liposomal formulations of αTAM.

[8] = tested on: granulocyte/macrophage colony forming cells (GM-CFC); experiment: GM-CFC colony formation in vitro; type: cell-based, Balb/c mouse; conditions: Balb/c bone marrow GM progenitors
Method: FIGS. 8A and 8B are comparative views illustrating the paradoxical effect of the liposomal formulation on non-specific toxicity, here to granulocyte/macrophage colony forming cells (GM-CFC). […] In the left panel, GM progenitors were isolated from Balb/c mouse bone morrow and treated with αTOS (left) or αTAM (right, black bars) at the concentrations shown, the number of colonies was counted and expressed per individual well. In the right panel, Balb/c mice were injected i.p. with the vehicle (40), empty liposomes (41) liposomal αTOS at 100 mg/kg (42), αTAM at 10 mg/kg (43), or αTAM at 25 mg/kg (44), and GM-CFC colonies in femoral bone marrow counted 48 h later (* denotes statistically significant differences with pb0.05 in comparison to control). […] This surprising result is paradoxical, and points to the importance of the formulation vehicle as a technological advance in achieving clinical trials of these compounds.

Cc1c(C)c2c(c(C)c1NC(=O)CCC(=O)O)CCC(C)(CCCC(C)CCCC(C)CCCC(C)C)O2 (stereo not drawn) [αTAS, α-tocopheryl succinamide]
dissipating mitochondrial inner transmembrane potential [1]: potent in dissipating mitochondrial inner transmembrane potential

Cc1c(C)c2c(c(C)c1O)CC[C@@](C)(CCC[C@H](C)CCC[C@H](C)CCCC(C)C)O2 [αTOH]
cytotoxic potential (order) [2]: No toxicity was observed

tocopheryl succinate [αTOS]
cytotoxic potential (order) ([2]; B16F10 in vitro): αTAM>αTOM>αTOS>>αTOH

Cc1c(C)c2c(c(C)c1NC(=O)/C=C\C(=O)O)CCC(C)(CCCC(C)CCCC(C)CCCC(C)C)O2 (stereo not drawn) [αTAM, α-tocopheryl maleamide]
IC50 [3]: 13.3 µM
cytolytic potency versus the corresponding tocopheryl succinates [4]: markedly increased cytolytic potency
outcome of one or two injections in DMSO ([5]; Balb/c, C57B1 or FVB/N c-neu mice): caused death of the animals
toxicity of solution in DMSO (or ethanol) ([5]; non-liposomal solution): extremely toxic
cytotoxicity to non-malignant cells [6]: cytotoxic to non-malignant cells
tolerated dose (given in liposomal formulation): 500 μg per 20 g mouse
dose feasible for human use (mouse, in vivo): 1.75 g
safe dose (mouse, in vivo): 25 mg/kg
cytotoxic potential (order) [2]: αTAM>αTOM>αTOS>>αTOH
outcome of free compound administered in DMSO [7]: caused rapid death of the animals
dissipating mitochondrial inner transmembrane potential [1]: potent in dissipating mitochondrial inner transmembrane potential
toxicity to GM progenitors in vitro [8]: the compound is toxic in vitro
